Measured values taken from paper PMC5137160, “Optical imaging of MMP-12 active form in inflammation and aneurysm” (Scientific Reports, 2016).

Columns and labels:
MMP-12 active form [1] = target: T1, MMP-12 active form (Mus musculus, UniProt P34960); test: Sponge model of sterile inflammation, fluorescence imaging of explanted sponges; assay type: in vivo, C57BL/6 mice; set-up: from tissue; host or cells: subcutaneously implanted polyvinyl alcohol sponges in C57BL/6 mice; conditions: 60 minutes after intravenous administration, 1 nmol
T1 sequence (P34960 110-473): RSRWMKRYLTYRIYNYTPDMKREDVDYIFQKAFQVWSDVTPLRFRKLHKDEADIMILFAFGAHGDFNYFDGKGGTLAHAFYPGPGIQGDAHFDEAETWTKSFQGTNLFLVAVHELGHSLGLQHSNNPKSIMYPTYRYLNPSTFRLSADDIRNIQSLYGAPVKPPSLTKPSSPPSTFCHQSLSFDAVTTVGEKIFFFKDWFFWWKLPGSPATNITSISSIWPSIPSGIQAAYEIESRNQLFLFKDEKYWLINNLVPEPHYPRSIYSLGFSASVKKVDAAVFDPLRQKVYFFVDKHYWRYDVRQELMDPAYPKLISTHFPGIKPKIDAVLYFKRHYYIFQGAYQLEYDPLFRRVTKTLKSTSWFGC
Experimental: Sponge model of sterile inflammation: Pieces of polyvinyl alcohol sponge (Ivalon Ear Wick, 0.9 e × 15 mm, New London, CT) were implanted in dorsal subcutaneous pockets of C57BL/6 mice (originally from Jackson Laboratory, Farmington, CT, n = 24) under isoflurane anesthesia, as described. Animals were re-anesthetized at day 1 or 4 after sponge implantation, and the sponges were removed for imaging or embedded in OCT, snap-frozen, and stored at −80 °C for further analysis.
Fluorescent probes (one nmol in 100 μL saline) were administered through a jugular vein catheter under inhaled isoflurane anesthesia. Blood samples were collected at various time points after probe administration to monitor blood clearance. […] Near-infrared fluorescence reflectance imaging was conducted using an IVIS Spectrum system (Caliper Life Science, Hopkinton, MA) with appropriate excitation (Ex) and emission (Em) filter sets (Ex/Em = 675/720 nm for probe 1 and Ex/Em = 745/800 nm for probes 3 and 4). Fluorescence from 10 μL of blood was converted to % injected dose per gram (% ID/g) using a standard curve derived from serial dilutions of each probe in 10 μL of mouse blood. Tissue fluorescence was quantified as mean efficiency per pixel and was presented as an arbitrary unit (AU) relative to the signal from each probe in 10 μL of mouse blood.

hMMP-12 = test: MMP inhibition assay (Ki); assay type: biochemical, human
Experimental: (§1) Human MMP-8, -9, -12 and -13 were produced in the laboratory. Other MMPs were purchased from R&D Systems (Minneapolis, MN). MMP inhibition assays were carried out as previously described. Pro-MMPs were pre-activated by p-aminophenylmercuric acetate following the method described by R&D Systems. Titration experiments were carried out to determine active enzyme concentration for each MMP prior to the assay. For each probe, the percentage of inhibition was determined from five different concentrations in triplicates, chosen to reach a range of 20–80% inhibition. Ki values were determined using the method proposed by Horovitz and Leviski[45].

MMP-12 active form [2] = target: T1, MMP-12 active form; test: MMP-12 imaging of carotid aneurysm; assay type: in vivo; set-up: from tissue; host or cells: CaCl2-induced aneurysmal left carotid artery of apoE-deficient mice (in vivo imaging and cryostat sections); conditions: high fat-fed apoE-/- mice, tissues harvested at 60 minutes after intravenous administration
Experimental: Carotid aneurysm model: Arterial aneurysm was induced over a 4-week period by exposing the left common carotid artery of apolipoprotein E–deficient (apoE^−/−, n = 7) mice (Jackson Laboratory) to calcium chloride, as described. The opposite carotid artery was exposed to normal saline and served as control for imaging studies. Tissues from a previous study (n = 3)[18] supplemented histologic evaluations.
(§2) Fluorescent probes (one nmol in 100 μL saline) were administered through a jugular vein catheter under inhaled isoflurane anesthesia. Blood samples were collected at various time points after probe administration to monitor blood clearance. Animals were sacrificed at the indicated time points and various organs were harvested. Near-infrared fluorescence reflectance imaging was conducted using an IVIS Spectrum system (Caliper Life Science, Hopkinton, MA) with appropriate excitation (Ex) and emission (Em) filter sets (Ex/Em = 675/720 nm for probe 1 and Ex/Em = 745/800 nm for probes 3 and 4). Fluorescence from 10 μL of blood was converted to % injected dose per gram (% ID/g) using a standard curve derived from serial dilutions of each probe in 10 μL of mouse blood. Tissue fluorescence was quantified as mean efficiency per pixel and was presented as an arbitrary unit (AU) relative to the signal from each probe in 10 μL of mouse blood.

Stability in PBS = assay type: physicochemical
Experimental: Probes 1, 2, 3 and control probe 4 were synthesized from phosphinic building blocks whose synthesis was previously reported. Briefly, the elongation of the peptide’s sequence as well as the incorporation of the phosphinic building blocks were performed on solid support using a standard Fmoc strategy. After cleavage from the support, pseudo peptide intermediates were purified and subsequently engaged in a coupling reaction with the appropriate dye-NHS ester. The identity and purity of each optical probe were confirmed by analytical HPLC, mass spectrometry analysis and NMR (for detailed protocols and analytical data see supplemental information). The stability of each probe was confirmed in phosphate buffered saline (PBS). Moreover, the stability of probe 3 and its control, probe 4 were evaluated by HPLC in mouse blood over a period of 4 hours at 37 °C.

hMMP-2 = target: T2, hMMP-2 (Homo sapiens, UniProt P08253); test: MMP inhibition assay (Ki); assay type: biochemical
T2 construct: purchased R&D Systems (Minneapolis, MN)
T2 sequence (P08253 110-660): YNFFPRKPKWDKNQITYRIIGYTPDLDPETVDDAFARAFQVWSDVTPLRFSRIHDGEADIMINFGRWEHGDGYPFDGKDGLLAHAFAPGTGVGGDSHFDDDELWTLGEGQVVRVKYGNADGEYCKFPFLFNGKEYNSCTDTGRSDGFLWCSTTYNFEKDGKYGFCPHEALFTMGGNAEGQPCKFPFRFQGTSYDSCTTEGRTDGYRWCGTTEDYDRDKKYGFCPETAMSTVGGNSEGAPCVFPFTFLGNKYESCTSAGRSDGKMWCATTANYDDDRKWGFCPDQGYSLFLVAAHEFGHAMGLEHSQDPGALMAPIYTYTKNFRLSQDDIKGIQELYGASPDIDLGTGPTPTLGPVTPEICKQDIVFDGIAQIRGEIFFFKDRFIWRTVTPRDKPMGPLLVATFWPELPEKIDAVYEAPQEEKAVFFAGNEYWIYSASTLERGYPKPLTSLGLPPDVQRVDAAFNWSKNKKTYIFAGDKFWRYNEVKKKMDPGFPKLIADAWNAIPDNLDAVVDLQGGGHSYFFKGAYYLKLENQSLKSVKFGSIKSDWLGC
Experimental: as §1

[3] = Blood clearance and biodistribution after intravenous administration in wild type mice; assay type: in vivo; conditions: 1 nmol intravenous, 30 and 60 minutes, compared to probe 1
Experimental: as §2

TACE = TACE (Homo sapiens, UniProt P78536); test: Metalloprotease inhibition assay (Ki); assay type: biochemical
Chain of TACE (P78536 215-824): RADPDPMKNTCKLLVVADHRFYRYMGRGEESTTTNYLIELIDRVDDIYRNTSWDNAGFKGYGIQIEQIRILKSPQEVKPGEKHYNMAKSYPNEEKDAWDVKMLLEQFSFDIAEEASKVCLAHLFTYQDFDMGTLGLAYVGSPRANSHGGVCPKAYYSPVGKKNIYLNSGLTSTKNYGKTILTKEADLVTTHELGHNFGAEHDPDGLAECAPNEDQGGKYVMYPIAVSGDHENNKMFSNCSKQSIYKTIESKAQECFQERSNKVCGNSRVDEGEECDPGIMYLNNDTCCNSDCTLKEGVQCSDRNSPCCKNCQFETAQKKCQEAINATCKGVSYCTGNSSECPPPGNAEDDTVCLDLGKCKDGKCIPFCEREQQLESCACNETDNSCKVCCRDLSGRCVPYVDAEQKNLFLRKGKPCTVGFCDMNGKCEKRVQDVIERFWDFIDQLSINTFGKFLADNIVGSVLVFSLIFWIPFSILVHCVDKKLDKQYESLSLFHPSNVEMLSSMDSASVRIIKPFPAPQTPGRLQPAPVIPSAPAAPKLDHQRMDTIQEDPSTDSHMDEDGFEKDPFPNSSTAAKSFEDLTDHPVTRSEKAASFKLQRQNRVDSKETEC

human MMPs = test: Affinity and selectivity profile toward panel of human MMPs; assay type: biochemical
Experimental: as §1

Structure (SMILES)	fluorescence signal in explanted sponges (MMP-12 active form [1])	Ki (hMMP-12)	difference in potency towards MMP-12, factor relative to probe 1 (hMMP-12; relative to probe 1)	fluorescence signal in aneurysmal left carotid artery (MMP-12 active form [2])	stability in PBS (Stability in PBS)	Ki (hMMP-2)	residual blood level [3]	Ki (TACE)	affinity for human MMPs (human MMPs)
CC1(C)C(/C=C/C2=C(Oc3ccc(CCC(=O)NCCCOCCOCCOCCCNC(=O)[C@H](CCC(=O)[O-])NC(=O)[C@H](CCC(=O)O)NC(=O)[C@H](Cc4cc(-c5ccc(-c6cccc(Cl)c6)cc5)no4)CP(=O)(O)c4ccc(Br)cc4)cc3)C(=C/C=C3/N(CCC[N+](C)(C)C)c4ccc(S(=O)(=O)[O-])cc4C3(C)C)/CCC2)=[N+](CCC[N+](C)(C)C)c2ccc(S(=O)(=O)[O-])cc21 [probe 3]	intense signal	0.0034 ± 0.0003 µM	4	significantly higher than the signal in the control, contralateral artery	fully stable	2.13 ± 0.172 µM	significantly lower residual blood level	4.61 ± 0.653 µM	–
CC1(C)C(=CC=C2CCCC(C=CC3=[N+](CCC[N+](C)(C)C)c4ccc(S(=O)(=O)[O-])cc4C3(C)C)=C2Oc2ccc(CCC(=O)NCCCOCCOCCOCCCNC(=O)C(CCC(=O)[O-])NC(=O)C(CCC(=O)O)NC(=O)C(Cc3cc(-c4cccc(Oc5ccccc5)c4)no3)CP(=O)(O)c3ccc(Br)cc3)cc2)N(CCC[N+](C)(C)C)c2ccc(S(=O)(=O)[O-])cc21 (centres unmarked) [probe 4]	significantly lower	4.04 ± 0.67 µM	–	significantly lower signal	–	> 12 µM	–	> 25 µM	no affinity
